{
  "source": "patent US20260325465A1",
  "about": "“SHP-1 INHIBITORS FOR TREATING CANCER” (MDX MANAGEMENT LLC, priority 2022, published 2026)",
  "key": {"macrophages": {"test_system": "macrophages", "test": "Macrophage cytokine production and antigen presentation machinery in a tumor milieu", "assay_type": "cell-based", "conditions": "IFNγ/LPS", "experimental": "FIGS. 2A-2G depict that the inhibition of SHP-1 enhances macrophage proinflammatory response, antigen presentation and phagocytosis in a tumor milieu. FIG. 2A and FIG. 2B depict that SHP-1 activity in macrophages is triggered by proinflammatory stimulation and the extracellular cancer cell ligation (“touching”) of macrophages (green bar in FIG. 2A). […] The SHP-2 inhibitor SHP099 (1 μg/ml) was used in assays. FIG. 2C depicts the inhibition of SHP-1 by TPI-1 dose-dependently recovers IFNγ/LPS-induced activation of STAT1 (p-STAT1) and Erk1/2 (p-Erk1/2) de-activated by SHP-1 (red line). FIG. 2D and FIG. 2E depict that the inhibition of SHP-1 in macrophages by TPI-1 enhances production of proinflammatory cytokines (FIG. 2D) and expression of immunogenic antigen presentation machinery (FIG. 2E) by IFNγ/LPS in a tumor milieu. […] The SHP-1 and SHP-2 inhibitors TPI-1 and SHP099, respectively, was used at 1 μg/ml in assays.\nMacrophages with high SHP-1 activity in a tumor milieu diminish production of proinflammatory cytokines but produce high IL-10 (see FIG. 2D, blue bar) under stimulation of IFNγ/LPS. This reinforcement of immunosuppression was reversed by SHP-1 inhibition. Additionally, inhibition of SHP-1 also enabled proinflammatory-activated macrophages to overcome the “don't-eat-me” barrier and initiate potent phagocytosis towards cancer cells, irrespective of cancer cells expressing of CD47 (FIG. 2F and FIG. 2G)."}, "[1]": {"test_system": "MC38 colorectal carcinoma", "test": "Study-2: multi-lesion MC38 colorectal carcinoma, efficacy", "assay_type": "in vivo, mice", "conditions": "intermittent iSHP-1 with αTLR, or αTLR and αPD-L1", "experimental": "FIGS. 12A-12D depict that pulse-intermittent inhibition of SHP-1 (iSHP-1) combined with TLR agonists (αTLR) and/or anti-PD-L1 checkpoint inhibitor effectively treat multi-lesion MC38 colorectal carcinoma. FIG. 12A depicts the treatment scheme. Mice with bilateral MC38 tumors (s.c.) were treated for two days with TPI-1 and various combinations via i.p. or s.c. A 5-day intermittent period was given before the 2nd cycle of treatments to mice that had residue tumors. FIGS. 12B and 12C depict tumor control efficacies measured by tumor volume changes (FIG. 12B) and TME reprogramming, indicating increases in tumor killing immune populations while reduction of immunosuppression. FIG. 12D depicts acute adverse toxicity, measured by body weight, proteinuria, serum ALT level and splenomegaly."}, "[2]": {"test_system": "PTP activity in macrophages", "test": "PTP activity in macrophages co-cultured with cancer cells and stimulated with IFNγ/LPS or TLR agonists", "assay_type": "cell-based", "set-up": "concentration or dose not given beside the values", "conditions": "induced by IFNγ/LPS or TLR agonists, with cancer cell ligation, 30 min, 37 °C", "experimental": "FIGS. 3A-3E depict modulation of SHP-1 activity in proinflammatory macrophages in cancer. Macrophages co-cultured with cancer cells were stimulated with IFNγ/LPS or TLR agonists (αTLR) comprising CpG, polycytidylic acid (i.e., PolyI:C) and R848 (each 0.4 μg/ml) for 30 min (37 °C) in the presence or the absence of different SHP-1 or SHP-2 inhibitor or activator, followed by cell lysis and assays of PTP activity. FIG. 3A depicts SHP-1 activity regulation mechanisms. […] FIG. 3E depicts that PKCθ negatively regulates SHP-1 activity at a moderate level."}, "Study-4: adverse effects": {"test": "Study-4: adverse effects", "assay_type": "in vivo, mice", "conditions": "TPI-1 with TLR agonists (each 50 μg), i.p.", "experimental": "FIGS. 14A-14E depict that pulse-intermittent inhibition of SHP-1 (iSHP-1) combined with TLR agonists (αTLR) treating late-stage KPC pancreatic ductal adenocarcinoma. FIG. 14A depicts the treatment scheme. Mice with large KPC tumors were treated (i.p.) consecutively for three days with TPI-I plus TLR agonists (CpG, PolyIC and R848, each 50 μg). After the initial pulse treatment, an intermittent period of 9-day was given before the 2nd cycle of treatment of two days with TPI plus TLR agonists. FIG. 14B depicts the luminescent images of mice with KPC tumor during the course of treatment. FIG. 14C depicts tumor volume changes."}, "[3]": {"test": "Toxicity of pulse-intermittent iSHP-1 in tumor-bearing mice", "assay_type": "in vivo", "conditions": "three cycles of pulse-intermittent iSHP-1 with proinflammatory agents", "description": "FIGS. 10A-10B depicts pulse-intermittent iSHP-1 design and treatment schemes. In preclinical tumor models, we have tested three pulsed treatment schemes, pulses-1, -2 and -3, with iSHP-1 given once, twice or three times consecutively (1× per day) at the beginning of each cycle, and an intermittent period of 2-9 days withholding iSHP-1 treatment between cycles. The combination modalities include, but are not limited to, TLR ligands, STING activator, RT, anti-PD-1/L1 immune checkpoint blockade (αPD-1/L1), inflammatory cytokines, chemotherapies and oncolytic viruses. These combination regimens were given together with SHP-1 inhibitor or following separate dosing schedules. Murine solid tumor models with a single tumor or multi-lesions (metastases) in syngeneic mice of different backgrounds were tested. These models were established by engrafting tumors in multiple locations, and iSHP-1 treatment began when a single tumor reaches ≥200 mm^3 in size or the total tumor burden ≥300 mm^3. […]\nThroughout treatments, anti-tumoral efficacies (tumor volume changes and survival rates), adverse effects (body weight loss, proteinuria, anemia and clinical discomfort), gross organ toxicity and tissue inflammation due to toxicity, and the TME immune landscape changes were analyzed at different time points and at the terminal point. […]"}, "KPC pancreatic tumor": {"test_system": "KPC pancreatic tumor", "test": "Cytokines secreted by KPC tumor pieces treated with TLR agonists with or without TPI-1", "set-up": "species or system mice", "conditions": "TPI-1 0.4 μM with TLR agonists 1 μg/ml, 18 h", "experimental": "KPC pancreatic tumor removed from mice were cut into small pieces and treated with 5 different TLR agonists (R848, 3M-852A, Motolimod, Bropirimine or Vesatolimod; 1 μg/ml each) without or with SHP-1 inhibitor TPI-1 (0.4 μM). After 18 h, cytokines secreted into the culture medium were assayed."}},
  "data": [
    {"smiles": "O=C1C=CC(=O)C(c2cc(Cl)ccc2Cl)=C1", "note": "[TPI-1]", "values": [
      {"measurement": "expression of immunogenic antigen presentation machinery", "setting": "macrophages", "value": "elevated macrophage production of proinflammatory cytokines and expression of immunogenic antigen presentation machinery"},
      {"measurement": "macrophage proinflammatory cytokine production", "setting": "macrophages", "value": "elevated macrophage production of proinflammatory cytokines"},
      {"measurement": "reinforcement of immunosuppression (IL-10)", "setting": "macrophages", "value": "reversed"},
      {"measurement": "tumor regression, combination", "setting": "[1]", "value": "effectively regressed multiple lesions of MC38 colorectal cancer"},
      {"measurement": "PTP activity diminished in macrophages", "setting": "[2]", "value": "> 70", "unit": "%"},
      {"measurement": "adverse effects and body weight", "setting": "Study-4: adverse effects", "value": "minor adverse effects and transient body weight loss followed by recovery"},
      {"measurement": "organ damage, anemia, splenomegaly", "setting": "[3]", "value": "did not exhibit serious lung or kidney damage, anemia or splenomegaly"},
      {"measurement": "cytokines secreted, with SHP-1 inhibitor", "setting": "KPC pancreatic tumor", "value": "induced high production of proinflammatory cytokine s while suppressing production of IL-10 and TGFβ"}
    ]}
  ]
}
